According to US8629100B2, “Method of inhibiting clostridium difficile by administration of oritavancin” (The Medicines Company, priority 2007, dated 2014):
Converted amounts (≈) assume the structure as drawn.

Key:
Assay type in all cases: cell-based
[1] = system: C. difficile vegetative cultures and spores; test: Spiral gradient endpoint analysis MIC; details: data not shown
Description: C. difficile PCR ribotypes 001, 106 and 027 were inoculated onto Columbia blood agar and incubated anaerobically (37° C.) for 10 d. Growth was harvested into sterile saline and alcohol shocked in an equal volume of 100% ethanol for 1 h. Alcohol-shocked spore suspensions were mixed by vortexing and sonicated for 5 minutes at room temperature. C. difficile phase-bright (non-germinated) spores were separated from phase-dark (germinated) spores and cellular debris by density gradient centrifugation (4000 rpm 15 minutes) following layering onto 50% (v/v in phosphate buffered saline) Urografin 370 (Schering, Germany). The density gradient centrifugation step was performed twice. Pellets of purified spores were re-suspended in sterile saline (1 mL per 10 Columbia blood agar plates harvested). Percentage phase-bright spores, phase-dark spores and vegetative cells were recorded using phase-contrast microscopy (×100 magnification).
A spiral plater (WASP2, Don Whitley Scientific, UK) was used to apply a logarithmic antibiotic gradient onto the surface of pre-dried (37° C. 20 minutes) Brazier's agar (pH 7). Agar with logarithmic antimicrobial gradients applied to their surface remained at room temperature for 1 h to allow the antimicrobial agent to adsorb into the agar. C. difficile vegetative cultures and spores (˜10^7 cfu/mL) were inoculated onto the agar surface (FIG. 1) with a sterile cotton swab and incubated anaerobically (37° C., 24 h). D-values were measured (in mm) and converted to MICs (Paton, J. H.1990. Int J Exp Clin Chemother. 9, 31-38).

[2] = system: C. difficile PCR ribotype 027 spores; test: Phase-contrast microscopy of spore germination/outgrowth; details: 10 mg/L for 2 h, washed 3x in PBS
Description: C. difficile spores were also exposed to 10 mg/L antimicrobial for 2 h, washed 3× in sterile PBS, re-suspended and inoculated into Brazier's broth medium (pH 7). Samples were removed at 2, 4, 6, 24, 32 and 48 h. Slides were viewed under phase-contrast microscopy and percentages of phase-bright spores, phase-dark spores and vegetative cells were recorded (FIG. 4).
Statistical analyses were performed by transforming percentage data using an Arcsin Transformation and analysed using a Wilcoxon signed rank test. P<0.05 was considered statistically significant. Supra-MIC concentrations of all antimicrobials prevented outgrowth but not germination of C. difficile spores.

[3] = system: genotypically distinct C. difficile (n = 33); test: Broth macrodilution MIC; details: Clostridioides difficile, BM, broth macrodilution
[4] = system: genotypically distinct C. difficile (n = 33); test: Agar incorporation MIC; details: for MIC90 / MIC range / MIC: AI; for MIC: read-out: GEO MIC
Source text: Thirty-three genotypically distinct (by PCR ribotyping) C. difficile isolates were selected from a library of strains at the Leeds General Infirmary (Leeds, UK). Representative isolates of epidemic C. difficile PCR ribotypes 001, 106 and 027 were included in the panel. Control isolates of Staphylococcus aureus ATCC 29213, Enterococcus faecalis ATCC 29212 and Bacteroides fragilis ATCC 25285 were included in all MIC determinations to ensure procedure accuracy.
Agar incorporation MICs were determined based on the method of Freeman and Wilcox (J Antimicrob Chemother 2001; 47: 244-6). Briefly, bacteria were cultured in Schaedler's anaerobic broth (Oxoid, Basingstoke, UK) at 37° C. for 24 h in an anaerobic cabinet (Don Whitley Scientific, Shipley). […] Oritavancin was prepared in 0.002% P80. All antimicrobial solutions were sterilized by filtration through 0.22 um syringe filters. […] Wilkins Chalgren agar (Oxoid) incorporating doubling dilutions of antimicrobial agents (0.03-16 mg/L) was prepared with and without 0.002% P80 and with and without 2% lysed horse blood (E&O Labs, Bonneybridge, UK). All media and diluents were pre-reduced overnight in the anaerobic cabinet. Bacterial cultures were diluted in sterile saline and inoculated onto the surface of agar incorporation agar plates using a multipoint inoculator (˜10^4 cfu). Agar incorporation plates were incubated anaerobically for 48 h. MIC endpoints were read as the lowest concentration of antimicrobial agent where there is no apparent growth (disregarding a visible haze of growth or a single colony).

[5] = system: C. difficile spores (PCR ribotypes 001, 106 and 027); test: Viability (recovery) of spores after antibiotic exposure, cellulose acetate filtration (Examples 3A, 3B)
Description: The experiments were in general performed by mixing C. difficile spores with an antibiotic, filtering the solution through cellulose acetate filters to collect the spores, applying the spore-containing filters to nutrient agar, and determining the number of spores remaining on the filters after a selected period of time.
Therefore, the initial experiment included dilution of antimicrobial-containing spore suspensions prior to filtration and washing. Reaction volumes were 1 mL for all antimicrobial/control solutions.
1 mL of control (de-ionised water+/−Tween-80) and test (antimicrobial containing) solutions were inoculated with 10 μL C. difficile spores (3 strains; PCR ribotypes 001, 106 and 027). Spore suspensions (time=1 min or 30 min) were transferred to filtration cupules and the appropriate volume of diluent (sterile de-ionised water+/−Tween-80) was added to achieve the dilution factors noted above. Samples were filtered onto cellulose acetate filters and washed with a further 50 mL of the appropriate diluent. Filters were transferred aseptically to Braziers CCEY agar containing 5 mg/L lysozyme and 2% lysed horse blood. This procedure was completed in duplicate. The culture media were incubated in an anaerobic atmosphere at 37° C. for 48 h and the numbers of C. difficile colonies were recorded.
Diluent was first added to filtration cupules. 1 mL reactions were then added to the appropriate diluent (1 min and 30 min after reaction formation) and filtered onto cellulose acetate filters. The filters were washed with 50 mL of the appropriate diluent. The filters were then transferred aseptically to Braziers CCEY agar containing 5 mg/L lysozyme and 2% lysed horse blood. This procedure was completed in duplicate. Culture media were incubated in an anaerobic atmosphere at 37° C. for 48 h and the numbers of C. difficile colonies recorded

- MICs for C. difficile vegetative cells versus spores [1]: did not differ substantially
- MIC90 [3]: 2 µg/mL (≈ 11.7 µM)
- MIC ([3]; read-out: GEO MIC): 0.56 µg/mL (≈ 3.27 µM)
- MIC90 ([4]; P80 no LHB): 2 µg/mL (≈ 11.7 µM)
- MIC range ([4]; P80 no LHB): 0.25 to 2 µg/mL
- MIC90 ([4]; no P80 no LHB): 2 µg/mL (≈ 11.7 µM)
- MIC range ([4]; no P80 no LHB): 0.25 to 4 µg/mL
- MIC90 ([4]; no P80 with LHB): 2 µg/mL (≈ 11.7 µM)
- MIC range ([4]; no P80 with LHB): 0.5 to 4 µg/mL
- MIC ([4]; Clostridioides difficile, P80 no LHB): 0.55 µg/mL (≈ 3.21 µM)
- MIC ([4]; Clostridioides difficile, P80 with LHB): 0.55 µg/mL (≈ 3.21 µM)
- MIC90 ([4]; Clostridioides difficile, P80 with LHB, read-out: MIC90): 2 µg/mL (≈ 11.7 µM)
- MIC ([4]; Clostridioides difficile, no P80 no LHB): 0.53 µg/mL (≈ 3.1 µM)
- MIC ([4]; Clostridioides difficile, no P80 with LHB): 0.69 µg/mL (≈ 4.03 µM)
- Agar incorporation geometric mean MICs lower than oritavancin MICs ([4]; all agar conditions): 2- to 5 fold
- Agar incorporation geometric mean MICs lower than vancomycin MICs ([4]; all agar conditions): 2- to 3 fold
SMILES: Cc1ncc([N+](=O)[O-])n1CCO [metronidazole]
- Outgrowth of C. difficile spores prior-exposed to antimicrobial [2]: not observed
- Recovery of C. difficile spores ([5]; Example 3A: diluent added after reaction solutions, 1 min and 30 min exposure): 90-110 % of controls
- Recovery of C. difficile spores ([5]; Example 3B: diluent added to cupules before reaction solutions, 1 min and 30 min): 95-110 % of controls
